Data: paper doi:10.1101/2021.09.30.462449v1 (biorxiv, 2021)

How the values were obtained:
Assay in all cases: biochemical
Settings in all cases: read-out: % inhibition mean (Z'Lyte)
ADRBK2 (GRK3) = ADRBK2 (GRK3) (Homo sapiens, UniProt P35626)
AKT2 (PKB beta) = AKT2 (PKB beta) (Homo sapiens, UniProt P31751)
AXL = AXL (Homo sapiens, UniProt P30530)
CSNK1E (CK1 epsilon) = CSNK1E (CK1 epsilon) (Homo sapiens, UniProt P49674)
CSNK1G1 (CK1 gamma 1) = CSNK1G1 (CK1 gamma 1) (Homo sapiens, UniProt Q9HCP0)
EGFR (ErbB1) C797S = EGFR (ErbB1) C797S (Homo sapiens, UniProt P00533, C797S)
ERBB4 (HER4) = ERBB4 (HER4) (Homo sapiens, UniProt Q15303)
FGFR2 = FGFR2 (Homo sapiens, UniProt P21802)
FGFR3 = FGFR3 (Homo sapiens, UniProt P22607)
FGFR3 K650E = FGFR3 K650E (Homo sapiens, UniProt P22607, K650E)
FGR = FGR (Homo sapiens, UniProt P09769)
GRK5 = GRK5 (Homo sapiens, UniProt P34947)
GSK3A (GSK3 alpha) = GSK3A (GSK3 alpha) (Homo sapiens, UniProt P49840)
JAK2 JH1 JH2 = JAK2 JH1 JH2 (Homo sapiens, UniProt O60674)
LYN A = LYN A (Homo sapiens, UniProt P07948)
MAP3K9 (MLK1) = MAP3K9 (MLK1) (Homo sapiens, UniProt P80192)
MARK1 (MARK) = MARK1 (MARK) (Homo sapiens, UniProt Q9P0L2)
MERTK (cMER) = MERTK (cMER) (Homo sapiens, UniProt Q12866)
NEK4 = NEK4 (Homo sapiens, UniProt P51957)
NEK6 = NEK6 (Homo sapiens, UniProt Q9HC98)
PAK3 = PAK3 (Homo sapiens, UniProt O75914)
PAK7 (KIAA1264) = PAK7 (KIAA1264) (Homo sapiens, UniProt Q9P286)
PRKCI (PKC iota) = PRKCI (PKC iota) (Homo sapiens, UniProt P41743)
ROCK2 = ROCK2 (Homo sapiens, UniProt O75116)
SRC = SRC (Homo sapiens, UniProt P12931)
STK22B (TSSK2) = STK22B (TSSK2) (Homo sapiens, UniProt Q96PF2)
STK3 (MST2) = STK3 (MST2) (Homo sapiens, UniProt Q13188)
SYK = SYK (Homo sapiens, UniProt P43405)
TYRO3 (RSE) = TYRO3 (RSE) (Homo sapiens, UniProt Q06418)

NEK6, sequence (Q9HC98 whole entry): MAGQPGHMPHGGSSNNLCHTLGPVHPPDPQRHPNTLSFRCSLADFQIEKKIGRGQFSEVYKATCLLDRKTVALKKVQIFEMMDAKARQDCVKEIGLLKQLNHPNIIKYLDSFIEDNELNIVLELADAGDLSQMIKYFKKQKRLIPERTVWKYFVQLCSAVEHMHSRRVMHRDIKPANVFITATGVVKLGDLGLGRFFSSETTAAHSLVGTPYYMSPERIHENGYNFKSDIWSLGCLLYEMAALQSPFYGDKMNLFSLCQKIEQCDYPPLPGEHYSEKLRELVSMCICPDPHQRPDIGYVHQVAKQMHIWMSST
CSNK1G1 (CK1 gamma 1), sequence (Q9HCP0 whole entry): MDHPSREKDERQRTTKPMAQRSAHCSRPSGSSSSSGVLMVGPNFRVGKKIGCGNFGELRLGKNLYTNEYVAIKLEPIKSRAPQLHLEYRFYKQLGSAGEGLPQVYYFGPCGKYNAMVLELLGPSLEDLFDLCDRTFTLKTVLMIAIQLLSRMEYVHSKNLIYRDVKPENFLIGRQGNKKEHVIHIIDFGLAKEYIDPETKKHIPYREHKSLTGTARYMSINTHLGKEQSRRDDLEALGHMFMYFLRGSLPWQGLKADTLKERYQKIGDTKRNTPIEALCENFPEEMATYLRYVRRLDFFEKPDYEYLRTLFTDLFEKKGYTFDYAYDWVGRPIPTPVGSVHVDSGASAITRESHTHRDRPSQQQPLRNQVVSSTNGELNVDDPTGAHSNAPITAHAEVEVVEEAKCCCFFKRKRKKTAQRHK
PAK3, sequence (O75914 whole entry): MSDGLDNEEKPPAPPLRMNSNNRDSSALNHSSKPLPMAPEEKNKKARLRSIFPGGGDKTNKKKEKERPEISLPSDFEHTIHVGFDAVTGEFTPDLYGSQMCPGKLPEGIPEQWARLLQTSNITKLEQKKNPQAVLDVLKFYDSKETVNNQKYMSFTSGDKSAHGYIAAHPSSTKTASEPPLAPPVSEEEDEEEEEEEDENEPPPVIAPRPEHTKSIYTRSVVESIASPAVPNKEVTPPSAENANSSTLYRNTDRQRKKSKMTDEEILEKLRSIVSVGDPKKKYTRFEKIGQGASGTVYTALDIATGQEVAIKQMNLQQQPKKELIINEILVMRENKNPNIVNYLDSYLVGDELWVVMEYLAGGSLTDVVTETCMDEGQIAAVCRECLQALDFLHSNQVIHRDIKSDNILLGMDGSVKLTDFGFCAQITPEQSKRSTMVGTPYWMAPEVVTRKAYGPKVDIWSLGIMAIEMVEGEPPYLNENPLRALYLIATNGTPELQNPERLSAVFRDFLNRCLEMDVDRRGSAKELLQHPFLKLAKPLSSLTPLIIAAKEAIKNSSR
LYN A, sequence (P07948 whole entry): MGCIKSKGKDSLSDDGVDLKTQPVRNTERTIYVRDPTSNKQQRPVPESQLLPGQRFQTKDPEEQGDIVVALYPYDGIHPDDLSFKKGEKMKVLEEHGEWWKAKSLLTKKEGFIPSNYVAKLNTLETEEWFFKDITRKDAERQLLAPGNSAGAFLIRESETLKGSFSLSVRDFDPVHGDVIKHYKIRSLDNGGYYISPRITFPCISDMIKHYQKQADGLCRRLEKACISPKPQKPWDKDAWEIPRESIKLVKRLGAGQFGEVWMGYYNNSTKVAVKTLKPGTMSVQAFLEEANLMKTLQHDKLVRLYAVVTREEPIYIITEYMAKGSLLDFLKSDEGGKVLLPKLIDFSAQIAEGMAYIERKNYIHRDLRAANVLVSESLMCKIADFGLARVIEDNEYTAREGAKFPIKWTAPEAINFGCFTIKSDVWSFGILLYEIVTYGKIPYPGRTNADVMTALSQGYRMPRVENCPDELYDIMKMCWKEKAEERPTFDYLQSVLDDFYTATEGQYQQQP
ROCK2, sequence (O75116 whole entry): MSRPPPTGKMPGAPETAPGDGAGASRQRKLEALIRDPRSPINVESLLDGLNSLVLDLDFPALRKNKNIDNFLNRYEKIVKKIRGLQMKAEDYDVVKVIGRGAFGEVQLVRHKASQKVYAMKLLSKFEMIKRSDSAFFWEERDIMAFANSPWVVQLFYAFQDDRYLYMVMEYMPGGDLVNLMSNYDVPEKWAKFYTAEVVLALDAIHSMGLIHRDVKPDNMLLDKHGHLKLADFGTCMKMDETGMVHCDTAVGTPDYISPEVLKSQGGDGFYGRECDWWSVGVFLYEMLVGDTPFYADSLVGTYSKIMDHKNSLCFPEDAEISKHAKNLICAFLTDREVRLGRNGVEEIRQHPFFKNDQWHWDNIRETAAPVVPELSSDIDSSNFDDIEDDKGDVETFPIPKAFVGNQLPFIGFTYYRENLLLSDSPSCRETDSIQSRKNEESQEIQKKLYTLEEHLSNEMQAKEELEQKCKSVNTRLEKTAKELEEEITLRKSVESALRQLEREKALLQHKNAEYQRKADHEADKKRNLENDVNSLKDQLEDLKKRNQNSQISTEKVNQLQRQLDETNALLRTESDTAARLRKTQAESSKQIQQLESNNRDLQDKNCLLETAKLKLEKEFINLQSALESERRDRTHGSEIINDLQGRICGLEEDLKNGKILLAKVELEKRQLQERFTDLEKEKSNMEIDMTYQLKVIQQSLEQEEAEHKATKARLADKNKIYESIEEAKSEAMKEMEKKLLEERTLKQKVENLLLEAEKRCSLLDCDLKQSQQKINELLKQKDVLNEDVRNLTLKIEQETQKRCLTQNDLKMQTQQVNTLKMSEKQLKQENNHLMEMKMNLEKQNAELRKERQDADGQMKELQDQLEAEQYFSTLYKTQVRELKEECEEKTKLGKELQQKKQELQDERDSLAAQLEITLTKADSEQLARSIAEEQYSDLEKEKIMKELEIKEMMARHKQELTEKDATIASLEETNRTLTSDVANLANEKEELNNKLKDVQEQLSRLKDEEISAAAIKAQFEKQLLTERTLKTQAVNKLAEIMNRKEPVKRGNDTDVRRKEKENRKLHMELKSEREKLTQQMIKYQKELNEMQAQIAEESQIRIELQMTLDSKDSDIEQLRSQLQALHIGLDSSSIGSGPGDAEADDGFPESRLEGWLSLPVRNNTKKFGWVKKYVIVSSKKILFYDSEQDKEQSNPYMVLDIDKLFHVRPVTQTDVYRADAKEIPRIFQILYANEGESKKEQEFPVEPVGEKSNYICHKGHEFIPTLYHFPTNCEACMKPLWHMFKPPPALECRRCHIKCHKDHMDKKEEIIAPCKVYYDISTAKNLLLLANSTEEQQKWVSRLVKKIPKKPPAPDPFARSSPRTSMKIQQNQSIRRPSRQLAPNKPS
SRC, sequence (P12931 whole entry): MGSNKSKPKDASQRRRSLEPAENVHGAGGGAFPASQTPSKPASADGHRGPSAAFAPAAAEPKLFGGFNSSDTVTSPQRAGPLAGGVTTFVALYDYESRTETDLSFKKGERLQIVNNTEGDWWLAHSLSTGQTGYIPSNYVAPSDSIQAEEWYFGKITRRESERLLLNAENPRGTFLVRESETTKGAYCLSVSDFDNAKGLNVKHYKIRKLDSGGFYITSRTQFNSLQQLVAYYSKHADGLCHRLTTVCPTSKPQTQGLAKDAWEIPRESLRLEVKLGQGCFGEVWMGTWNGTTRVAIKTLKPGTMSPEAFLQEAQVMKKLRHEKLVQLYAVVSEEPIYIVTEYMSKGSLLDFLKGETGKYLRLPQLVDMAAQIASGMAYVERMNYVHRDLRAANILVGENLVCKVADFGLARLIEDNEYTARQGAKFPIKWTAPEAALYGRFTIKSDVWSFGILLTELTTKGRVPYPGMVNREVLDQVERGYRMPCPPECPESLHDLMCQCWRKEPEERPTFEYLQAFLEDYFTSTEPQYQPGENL
FGFR3 K650E, sequence (P22607 whole entry K650E): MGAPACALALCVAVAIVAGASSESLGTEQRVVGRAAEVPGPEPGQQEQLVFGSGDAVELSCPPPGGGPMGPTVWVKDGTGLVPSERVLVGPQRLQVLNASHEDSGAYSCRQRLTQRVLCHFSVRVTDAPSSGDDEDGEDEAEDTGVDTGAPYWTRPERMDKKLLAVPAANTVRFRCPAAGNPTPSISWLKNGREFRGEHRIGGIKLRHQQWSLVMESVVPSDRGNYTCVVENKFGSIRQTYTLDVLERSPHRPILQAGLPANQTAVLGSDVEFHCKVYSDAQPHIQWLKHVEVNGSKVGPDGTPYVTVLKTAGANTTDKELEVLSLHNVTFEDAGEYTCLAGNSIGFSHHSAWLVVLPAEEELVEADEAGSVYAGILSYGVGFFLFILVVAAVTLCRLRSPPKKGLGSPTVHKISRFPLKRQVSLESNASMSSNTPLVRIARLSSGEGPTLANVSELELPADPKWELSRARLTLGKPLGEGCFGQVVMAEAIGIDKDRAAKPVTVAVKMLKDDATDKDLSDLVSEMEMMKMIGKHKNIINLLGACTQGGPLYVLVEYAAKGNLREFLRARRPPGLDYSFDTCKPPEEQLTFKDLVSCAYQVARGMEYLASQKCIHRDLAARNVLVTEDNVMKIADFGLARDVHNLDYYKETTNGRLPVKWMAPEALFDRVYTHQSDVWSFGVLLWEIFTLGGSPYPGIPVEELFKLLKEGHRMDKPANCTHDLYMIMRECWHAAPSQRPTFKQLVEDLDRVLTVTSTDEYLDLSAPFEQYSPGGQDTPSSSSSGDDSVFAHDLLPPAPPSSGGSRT
STK3 (MST2), sequence (Q13188 whole entry): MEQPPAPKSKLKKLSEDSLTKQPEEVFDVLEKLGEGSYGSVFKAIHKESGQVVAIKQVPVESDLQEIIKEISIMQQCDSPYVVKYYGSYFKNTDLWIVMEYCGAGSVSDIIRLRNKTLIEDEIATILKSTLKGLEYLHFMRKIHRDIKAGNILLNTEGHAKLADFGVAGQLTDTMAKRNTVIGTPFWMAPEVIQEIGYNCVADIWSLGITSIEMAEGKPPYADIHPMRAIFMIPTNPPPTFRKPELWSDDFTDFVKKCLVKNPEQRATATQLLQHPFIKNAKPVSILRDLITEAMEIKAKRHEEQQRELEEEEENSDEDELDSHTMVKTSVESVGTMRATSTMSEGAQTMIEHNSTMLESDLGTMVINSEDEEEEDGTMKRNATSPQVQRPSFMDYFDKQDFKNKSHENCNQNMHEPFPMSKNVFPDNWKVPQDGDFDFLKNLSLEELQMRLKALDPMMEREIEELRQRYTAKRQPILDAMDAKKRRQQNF

With `COc1ccc2nc3cc(Cl)ccc3c(Nc3cc(CN4CCCC4)c(O)c(CN4CCCC4)c3)c2n1` [Pyronaridine, 4-[(7-Chloro-2-methoxybenzo[b][1,5]naphthyridin-10-yl)amino]-2,6-bis(1-pyrrolidinylmethyl)phenol phosphate (1:4)] as the compound, how does the inhibition at 1 µM (ADRBK2 (GRK3)) read?
The inhibition at 1 µM was -5%.

And the inhibition at 1 µM (AKT2 (PKB beta))?
Its inhibition at 1 µM is 1%.

What about the inhibition at 1 µM (AXL) of the same compound?
The inhibition at 1 µM was 1%.

What about the inhibition at 1 µM (CSNK1E (CK1 epsilon)) of the same compound?
The inhibition at 1 µM was 1%.

What about the inhibition at 1 µM (CSNK1G1 (CK1 gamma 1)) of the same compound?
The inhibition at 1 µM was 0%.

And the inhibition at 1 µM (EGFR (ErbB1) C797S)?
The inhibition at 1 µM was -7%.

What about the inhibition at 1 µM (ERBB4 (HER4)) of the same compound?
The inhibition at 1 µM was -2%.

What about the inhibition at 1 µM (FGFR2) of the same compound?
The inhibition at 1 µM was -1%.

And the inhibition at 1 µM (FGFR3)?
The inhibition at 1 µM was -2%.

And the inhibition at 1 µM (FGFR3 K650E)?
Its inhibition at 1 µM is -4%.

What about the inhibition at 1 µM (FGR) of the same compound?
The inhibition at 1 µM was 11%.

What about the inhibition at 1 µM (GRK5) of the same compound?
The inhibition at 1 µM was 10%.

What about the inhibition at 1 µM (GSK3A (GSK3 alpha)) of the same compound?
Its inhibition at 1 µM is 4%.

And the inhibition at 1 µM (JAK2 JH1 JH2)?
Its inhibition at 1 µM is -3%.

And the inhibition at 1 µM (LYN A)?
Its inhibition at 1 µM is -2%.

And the inhibition at 1 µM (MAP3K9 (MLK1))?
The inhibition at 1 µM was 17%.

What about the inhibition at 1 µM (MARK1 (MARK)) of the same compound?
Its inhibition at 1 µM is -10%.

And the inhibition at 1 µM (MERTK (cMER))?
Its inhibition at 1 µM is 2%.

And the inhibition at 1 µM (NEK4)?
The inhibition at 1 µM was 4%.

And the inhibition at 1 µM (NEK6)?
The inhibition at 1 µM was -3%.

What about the inhibition at 1 µM (PAK3) of the same compound?
Its inhibition at 1 µM is -7%.

And the inhibition at 1 µM (PAK7 (KIAA1264))?
Its inhibition at 1 µM is -5%.

And the inhibition at 1 µM (PRKCI (PKC iota))?
The inhibition at 1 µM was -10%.

What about the inhibition at 1 µM (ROCK2) of the same compound?
The inhibition at 1 µM was 1%.

What about the inhibition at 1 µM (SRC) of the same compound?
Its inhibition at 1 µM is 14%.

And the inhibition at 1 µM (STK22B (TSSK2))?
The inhibition at 1 µM was -2%.

What about the inhibition at 1 µM (STK3 (MST2)) of the same compound?
The inhibition at 1 µM was -2%.

What about the inhibition at 1 µM (SYK) of the same compound?
The inhibition at 1 µM was 1%.

What about the inhibition at 1 µM (TYRO3 (RSE)) of the same compound?
Its inhibition at 1 µM is -5%.
